Experimental data from the supplement of paper PMC10307832.

How the values were obtained:
Experiment in all cases: relative viability (nuclei count vs DMSO), 5 days (fraction); higher = more cells survive
CAL-12T = system: CAL-12T
Outline: (§1)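 Relative viability equals treated-well nuclei counts divided by vehicle-well nuclei counts. Counts came from 4× images of lung cancer cell lines grown in 1536-well plates for 5 days after pin-tool dosing on the day after seeding. Dosing used one drug alone or a fixed anchor-drug dose plus five library-drug doses (not always all listed) in √10 steps, and values are medians of duplicate plates.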

NCI-H441 = system: NCI-H441
Outline: as §1

HCC-15 = system: HCC-15
Outline: as §1

NCI-H1651 = system: NCI-H1651
Outline: as §1

NCI-H2085 = system: NCI-H2085
Outline: as §1

EKVX = system: EKVX
Outline: as §1

HCC-366 = system: HCC-366
Outline: as §1

NCI-H460 = system: NCI-H460
Outline: as §1

NCI-H2023 = system: NCI-H2023
Outline: as §1

LOU-NH91 = system: LOU-NH91
Outline: as §1

NCI-H1734 = system: NCI-H1734
Outline: as §1

NCI-H838 = system: NCI-H838
Outline: as §1

LCLC-103H = system: LCLC-103H
Outline: as §1

NCI-H1355 = system: NCI-H1355
Outline: as §1

NCI-H1975 = system: NCI-H1975
Outline: as §1

BEN = system: BEN
Outline: as §1

NCI-H1437 = system: NCI-H1437
Outline: as §1

NCI-H1563 = system: NCI-H1563
Outline: as §1

NCI-H358 = system: NCI-H358
Outline: as §1

NCI-H1650 = system: NCI-H1650
Outline: as §1

HCC-44 = system: HCC-44
Outline: as §1

NCI-H1755 = system: NCI-H1755
Outline: as §1

Compound: C[C@@H]1CN(CC(=O)Nc2ccc3c(c2)Cc2cccc(-c4cc(=O)cc(N5CCOCC5)o4)c2S3)C[C@H](C)O1 + C[C@@H](Oc1cc(-c2cnn(C3CCNCC3)c2)cnc1N)c1c(Cl)ccc(F)c1Cl [Crizotinib] (partner 1 µM)
- relative viability (CAL-12T; first compound 0.04 µM): 0.644
- relative viability (CAL-12T; first compound 0.1265 µM): 0.526
- relative viability (CAL-12T; first compound 0.4 µM): 0.693
- relative viability (CAL-12T; first compound 4 µM): 0.297
- relative viability (NCI-H441; first compound 0.04 µM): 0.944
- relative viability (NCI-H441; first compound 0.1265 µM): 0.788
- relative viability (NCI-H441; first compound 0.4 µM): 0.707
- relative viability (NCI-H441; first compound 4 µM): 0.587
- relative viability (HCC-15; first compound 0.04 µM): 0.8
- relative viability (HCC-15; first compound 0.1265 µM): 0.75
- relative viability (HCC-15; first compound 0.4 µM): 0.831
- relative viability (HCC-15; first compound 4 µM): 0.734
- relative viability (NCI-H1651; first compound 0.04 µM): 0.842
- relative viability (NCI-H1651; first compound 0.1265 µM): 0.859
- relative viability (NCI-H1651; first compound 0.4 µM): 0.903
- relative viability (NCI-H1651; first compound 4 µM): 0.882
- relative viability (NCI-H2085; first compound 0.04 µM): 0.922
- relative viability (NCI-H2085; first compound 0.1265 µM): 0.88
- relative viability (NCI-H2085; first compound 0.4 µM): 0.773
- relative viability (NCI-H2085; first compound 4 µM): 0.665
- relative viability (EKVX; first compound 0.04 µM): 0.924
- relative viability (EKVX; first compound 0.1265 µM): 0.947
- relative viability (EKVX; first compound 0.4 µM): 1.13
- relative viability (EKVX; first compound 4 µM): 0.876
- relative viability (HCC-366; first compound 0.04 µM): 0.5
- relative viability (HCC-366; first compound 0.1265 µM): 0.532
- relative viability (HCC-366; first compound 0.4 µM): 0.414
- relative viability (HCC-366; first compound 4 µM): 0.414
- relative viability (NCI-H460; first compound 0.04 µM): 0.973
- relative viability (NCI-H460; first compound 0.1265 µM): 0.924
- relative viability (NCI-H460; first compound 0.4 µM): 0.971
- relative viability (NCI-H460; first compound 4 µM): 0.662
- relative viability (NCI-H2023; first compound 0.04 µM): 0.655
- relative viability (NCI-H2023; first compound 0.1265 µM): 0.634
- relative viability (NCI-H2023; first compound 0.4 µM): 0.664
- relative viability (NCI-H2023; first compound 4 µM): 0.516
- relative viability (LOU-NH91; first compound 0.04 µM): 0.764
- relative viability (LOU-NH91; first compound 0.1265 µM): 0.752
- relative viability (LOU-NH91; first compound 0.4 µM): 0.948
- relative viability (LOU-NH91; first compound 4 µM): 0.72
- relative viability (NCI-H1734; first compound 0.04 µM): 0.762
- relative viability (NCI-H1734; first compound 0.1265 µM): 0.651
- relative viability (NCI-H1734; first compound 0.4 µM): 0.627
- relative viability (NCI-H1734; first compound 4 µM): 0.663
- relative viability (NCI-H838; first compound 0.04 µM): 0.886
- relative viability (NCI-H838; first compound 0.1265 µM): 0.77
- relative viability (NCI-H838; first compound 0.4 µM): 0.755
- relative viability (NCI-H838; first compound 4 µM): 0.616
- relative viability (LCLC-103H; first compound 0.04 µM): 1.08
- relative viability (LCLC-103H; first compound 0.1265 µM): 1.03
- relative viability (LCLC-103H; first compound 0.4 µM): 0.984
- relative viability (LCLC-103H; first compound 4 µM): 1.03
- relative viability (NCI-H1355; first compound 0.04 µM): 0.955
- relative viability (NCI-H1355; first compound 0.1265 µM): 1.07
- relative viability (NCI-H1355; first compound 0.4 µM): 1.03
- relative viability (NCI-H1355; first compound 4 µM): 1.1
- relative viability (NCI-H1975; first compound 0.04 µM): 0.947
- relative viability (NCI-H1975; first compound 0.1265 µM): 0.905
- relative viability (NCI-H1975; first compound 0.4 µM): 0.937
- relative viability (NCI-H1975; first compound 4 µM): 0.781
- relative viability (BEN; first compound 0.04 µM): 0.812
- relative viability (BEN; first compound 0.1265 µM): 0.82
- relative viability (BEN; first compound 0.4 µM): 0.964
- relative viability (BEN; first compound 4 µM): 0.95
- relative viability (NCI-H1437; first compound 0.04 µM): 0.986
- relative viability (NCI-H1437; first compound 0.1265 µM): 0.899
- relative viability (NCI-H1437; first compound 0.4 µM): 0.924
- relative viability (NCI-H1437; first compound 4 µM): 0.778
- relative viability (NCI-H1563; first compound 0.04 µM): 0.852
- relative viability (NCI-H1563; first compound 0.1265 µM): 0.849
- relative viability (NCI-H1563; first compound 0.4 µM): 0.688
- relative viability (NCI-H1563; first compound 4 µM): 0.747
- relative viability (NCI-H358; first compound 0.04 µM): 0.456
- relative viability (NCI-H358; first compound 0.1265 µM): 0.465
- relative viability (NCI-H358; first compound 0.4 µM): 0.718
- relative viability (NCI-H358; first compound 4 µM): 0.365
- relative viability (NCI-H1650; first compound 0.04 µM): 0.991
- relative viability (NCI-H1650; first compound 0.1265 µM): 0.959
- relative viability (NCI-H1650; first compound 0.4 µM): 1.1
- relative viability (NCI-H1650; first compound 4 µM): 0.55
- relative viability (HCC-44; first compound 0.04 µM): 0.853
- relative viability (HCC-44; first compound 0.1265 µM): 0.828
- relative viability (HCC-44; first compound 0.4 µM): 0.699
- relative viability (HCC-44; first compound 4 µM): 0.526
- relative viability (NCI-H1755; first compound 0.04 µM): 0.92
- relative viability (NCI-H1755; first compound 0.1265 µM): 0.86
- relative viability (NCI-H1755; first compound 0.4 µM): 0.816
- relative viability (NCI-H1755; first compound 4 µM): 0.792
